In patent publication US10221139B2, “Inhibitors of histone demethylases” (Gilead Sciences, Inc., priority 2012, dated 2019):

Legend:
[1] = molecular target: T1, PLU1 (KDM5B) (Homo sapiens, UniProt Q9UGL1); test: Histone lysine demethylase AlphaLISA assay, PLU1; format: biochemical; conditions: substrate H3K4M3B
T1 construct: 1-809; host or cells: E. coli
T1 sequence (Q9UGL1 1-809): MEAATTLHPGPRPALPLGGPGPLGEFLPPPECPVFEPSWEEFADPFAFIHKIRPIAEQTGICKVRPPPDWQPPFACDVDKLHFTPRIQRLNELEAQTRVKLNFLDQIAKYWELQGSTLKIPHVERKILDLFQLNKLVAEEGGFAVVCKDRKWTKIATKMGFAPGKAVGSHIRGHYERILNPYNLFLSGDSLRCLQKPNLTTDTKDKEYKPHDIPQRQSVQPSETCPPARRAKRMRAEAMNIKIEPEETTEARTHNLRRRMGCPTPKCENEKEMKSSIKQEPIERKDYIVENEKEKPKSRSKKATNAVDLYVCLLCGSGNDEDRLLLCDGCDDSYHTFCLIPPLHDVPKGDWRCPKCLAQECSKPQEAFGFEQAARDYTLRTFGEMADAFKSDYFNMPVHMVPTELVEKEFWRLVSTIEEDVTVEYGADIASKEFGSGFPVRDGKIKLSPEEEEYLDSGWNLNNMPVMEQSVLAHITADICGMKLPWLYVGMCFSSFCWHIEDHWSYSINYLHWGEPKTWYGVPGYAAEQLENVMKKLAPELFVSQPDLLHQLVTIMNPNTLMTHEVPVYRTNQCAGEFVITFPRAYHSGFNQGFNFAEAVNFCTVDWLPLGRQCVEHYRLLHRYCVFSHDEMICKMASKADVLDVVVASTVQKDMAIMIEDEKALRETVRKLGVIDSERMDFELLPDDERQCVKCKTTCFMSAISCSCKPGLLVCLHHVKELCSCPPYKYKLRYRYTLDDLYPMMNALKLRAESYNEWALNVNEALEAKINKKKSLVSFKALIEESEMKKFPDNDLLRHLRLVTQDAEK
Summary of the method: (§1)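 Each enzyme was preincubated 10 min, then 10 min with compound (added in 3% DMSO solution in enzyme buffer) before substrate addition and reaction at room temperature. Demethylation was detected by AlphaLISA: acceptor beads 60 min in the dark, then streptavidin donor beads, incubated and read; IC50 values determined.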

[2] = molecular target: T2, GASC1 (KDM4C, JMJD2C) (Homo sapiens, UniProt Q9H3R0); test: Histone lysine demethylase AlphaLISA assay, GASC1; format: biochemical; conditions: substrate BK9M3
T2 construct: 1-349; host or cells: E. coli
T2 sequence (Q9H3R0 1-349): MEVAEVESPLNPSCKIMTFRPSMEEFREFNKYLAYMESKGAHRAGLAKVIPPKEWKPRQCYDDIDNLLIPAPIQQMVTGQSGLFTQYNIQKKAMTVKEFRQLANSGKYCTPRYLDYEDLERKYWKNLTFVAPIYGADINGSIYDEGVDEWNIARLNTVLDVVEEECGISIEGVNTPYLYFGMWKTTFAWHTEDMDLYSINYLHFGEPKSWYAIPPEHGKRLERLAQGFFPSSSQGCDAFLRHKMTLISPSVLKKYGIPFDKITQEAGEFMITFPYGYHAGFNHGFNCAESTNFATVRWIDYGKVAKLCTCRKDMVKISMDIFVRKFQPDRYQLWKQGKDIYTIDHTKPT
Summary of the method: as §1

[3] = molecular target: T3, FBXL10 (KDM2B) (Homo sapiens, UniProt Q8NHM5); test: Histone lysine demethylase AlphaLISA assay, FBXL10; format: biochemical; conditions: substrate BH3K36M2
T3 construct: 1-650; purchased BPS, Bioscience, US; host or cells: Bac (baculovirus)
T3 sequence (Q8NHM5 1-650): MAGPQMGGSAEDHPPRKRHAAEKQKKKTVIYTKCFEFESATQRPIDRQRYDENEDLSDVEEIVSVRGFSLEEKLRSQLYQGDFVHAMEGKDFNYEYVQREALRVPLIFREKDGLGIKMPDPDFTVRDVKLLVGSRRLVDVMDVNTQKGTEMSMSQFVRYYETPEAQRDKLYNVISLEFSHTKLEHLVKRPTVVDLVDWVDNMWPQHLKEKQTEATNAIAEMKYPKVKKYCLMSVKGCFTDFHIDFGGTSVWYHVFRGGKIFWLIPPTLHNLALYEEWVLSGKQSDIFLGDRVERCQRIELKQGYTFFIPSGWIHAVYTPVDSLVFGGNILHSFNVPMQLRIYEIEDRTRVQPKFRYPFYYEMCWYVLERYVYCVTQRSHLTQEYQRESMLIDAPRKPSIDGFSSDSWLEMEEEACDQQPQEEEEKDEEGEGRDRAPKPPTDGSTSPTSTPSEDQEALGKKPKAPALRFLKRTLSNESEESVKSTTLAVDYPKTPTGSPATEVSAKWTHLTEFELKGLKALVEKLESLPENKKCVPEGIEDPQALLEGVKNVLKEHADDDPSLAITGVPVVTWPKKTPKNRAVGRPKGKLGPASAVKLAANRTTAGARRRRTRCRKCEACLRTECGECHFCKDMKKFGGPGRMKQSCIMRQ
Procedure: Example 2: Histone Lysine Demethylase AlphaLISA Assays for IC50 Value Determination
Assays are performed analogously to the protocol described by Perkin Elmer (Roy et al. Perkin Elmer Technical Note: AlphaLISA #12, April 2011).
Enzymes are dissolved in enzyme buffer and incubated for 10 min before 5 μL is added to 5 μL 3% DMSO solutions of compounds in enzyme buffer. Incubated for another 10 minutes, before 5 μL substrate solution is added and the reaction mixture is incubated at room temperature for the given period. 10 μL acceptor beads, suspended at given dilutions in Epigenetic Buffer (Perkin Elmer AL008) from stock, are added and the suspension is incubated 60 minutes in the dark at room temperature, before 10 μL suspension (at the given dilutions in Epigenetic Buffer) of streptavidin donor beads (Perkin Elmer 6760002) in Epigenetic Buffer is added. After incubation at room temperature in the dark the plates are read. Reaction conditions are seen in Table 2b.

[4] = molecular target: T4, GASC1 (KDM4C) (Homo sapiens, UniProt Q9H3R0); test: Immunofluorescence assay in U2OS cells transfected with pCMVHA JMJD2C (H3K9me3 mark); format: cell-based; conditions: 20 hours
T4 construct: Full length; host or cells: U2OS
T4 sequence (Q9H3R0 1-1056): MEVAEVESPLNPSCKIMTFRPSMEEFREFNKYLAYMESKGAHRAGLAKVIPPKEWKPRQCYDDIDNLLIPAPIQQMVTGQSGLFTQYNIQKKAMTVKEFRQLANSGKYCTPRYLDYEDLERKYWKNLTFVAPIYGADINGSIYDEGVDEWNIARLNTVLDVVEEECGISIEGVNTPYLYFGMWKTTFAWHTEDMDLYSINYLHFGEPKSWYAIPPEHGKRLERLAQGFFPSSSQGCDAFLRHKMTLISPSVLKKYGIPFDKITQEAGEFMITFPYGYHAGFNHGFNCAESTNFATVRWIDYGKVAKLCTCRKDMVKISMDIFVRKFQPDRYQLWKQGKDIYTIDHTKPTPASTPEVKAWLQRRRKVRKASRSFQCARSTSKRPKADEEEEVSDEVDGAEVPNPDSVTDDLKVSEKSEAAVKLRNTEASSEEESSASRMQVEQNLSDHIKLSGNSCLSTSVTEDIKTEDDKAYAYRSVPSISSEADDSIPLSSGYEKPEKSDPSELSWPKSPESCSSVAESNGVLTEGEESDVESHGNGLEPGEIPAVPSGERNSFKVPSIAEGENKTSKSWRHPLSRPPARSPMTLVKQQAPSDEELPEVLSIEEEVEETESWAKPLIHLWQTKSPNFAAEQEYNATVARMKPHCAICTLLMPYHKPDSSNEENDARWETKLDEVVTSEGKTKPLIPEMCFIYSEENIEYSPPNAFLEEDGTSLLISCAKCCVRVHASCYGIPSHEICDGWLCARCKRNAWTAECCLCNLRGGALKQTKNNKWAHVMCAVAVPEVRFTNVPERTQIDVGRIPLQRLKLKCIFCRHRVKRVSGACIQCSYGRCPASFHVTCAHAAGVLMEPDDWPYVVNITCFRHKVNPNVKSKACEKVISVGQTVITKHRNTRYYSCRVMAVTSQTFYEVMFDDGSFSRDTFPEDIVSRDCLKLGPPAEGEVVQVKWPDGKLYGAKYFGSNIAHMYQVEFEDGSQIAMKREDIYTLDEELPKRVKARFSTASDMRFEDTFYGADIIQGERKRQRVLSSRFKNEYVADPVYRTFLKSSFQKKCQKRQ
Procedure: U2OS cells were seeded 24 hours before transfection. Transfection was performed with Fugene HD transfection reagent as recommended by the manufacturer. 6 hours after transfection, the cells were harvested and seeded into multi well plates into media containing compound. The media used was DMEM containing 5% FBS and pen/strep. 20 hours after incubation of cells with compounds, the cells were washed once in PBS, harvested by fixation with formaldehyde 4% aqueous solution, and washed 2 times in PBS. Subsequently, the cells were permeabilized in PBS with 0.2% Triton X-100 for 10 min at room temperature. Blocking was performed in PBS with 0.2% Triton X-100 and 5% FBS for 45 min at room temperature. The cells were incubated with primary antibodies diluted 1 μg/ml in blocking solution over night at 4° C. The primary antibodies used in the assays were HA.11 (Covance, MMS-101P) and the antibody detecting the mark specified in the Table 6 below. After incubation with primary antibodies, the cells were washed 3 times with PBS, incubated with secondary antibodies diluted 1:1000 (Alexa fluor 594 goat anti rabbit IgG, Invitrogen, A11012; Alexa flour 488 donkey anti mouse IgG, Invitrogen, A21202) and Hoechst, 20 μg/ml (Sigma, 33342) in blocking solution, and washed again 3 times with PBS. Finally, PBS was added and high throughput imaging and analysis were performed by an IN Cell Analyzer 1000 (GE Healthcare). The robot software analyzed individual cells and divided these into HA^+ (transfected cells) and HA^− (non-transfected cells). The IC50 values in Table 7 below were based on an average measure of the staining of the mark specified in the Table 6 below in the transfected cells.

[5] = molecular target: T5, PLU1 (KDM5B) (Homo sapiens, UniProt Q9UGL1); test: Immunofluorescence assay in U2OS cells transfected with pCMVHA PLU1 (H3K4me2 mark); format: cell-based; conditions: 20 hours
T5 construct: (1-752); host or cells: U2OS
T5 sequence (Q9UGL1 1-752): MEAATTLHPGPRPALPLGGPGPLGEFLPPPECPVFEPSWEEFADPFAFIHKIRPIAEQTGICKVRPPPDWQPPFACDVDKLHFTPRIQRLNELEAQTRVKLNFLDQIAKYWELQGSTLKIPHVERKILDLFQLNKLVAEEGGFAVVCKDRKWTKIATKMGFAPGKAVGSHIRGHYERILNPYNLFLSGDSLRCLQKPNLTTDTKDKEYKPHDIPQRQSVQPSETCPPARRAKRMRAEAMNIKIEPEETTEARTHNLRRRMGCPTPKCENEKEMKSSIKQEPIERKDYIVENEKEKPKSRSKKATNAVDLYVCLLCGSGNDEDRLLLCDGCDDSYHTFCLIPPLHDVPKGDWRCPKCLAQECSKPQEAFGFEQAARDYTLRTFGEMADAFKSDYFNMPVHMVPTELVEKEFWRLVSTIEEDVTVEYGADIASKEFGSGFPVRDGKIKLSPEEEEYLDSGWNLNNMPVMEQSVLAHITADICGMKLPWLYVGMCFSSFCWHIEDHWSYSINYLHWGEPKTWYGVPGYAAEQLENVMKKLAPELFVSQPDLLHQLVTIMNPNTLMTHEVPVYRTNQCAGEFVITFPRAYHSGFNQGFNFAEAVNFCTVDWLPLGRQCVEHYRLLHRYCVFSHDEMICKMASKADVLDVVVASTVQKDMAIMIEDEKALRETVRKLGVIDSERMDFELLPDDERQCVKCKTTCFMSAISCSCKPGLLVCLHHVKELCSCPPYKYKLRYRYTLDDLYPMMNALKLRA
Summary of the method: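 U2OS cells transiently expressing HA-tagged demethylase, exposed to compound 6 h post-transfection for 20 h in DMEM/5% FBS. Cells fixed, then immunostained for HA and the histone methyl mark and imaged by high-content analysis. IC50 from mean mark staining in HA-positive transfected cells.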

Row | IC50 [1] [nM] | IC50 [2] [nM] | IC50 [3] [nM] | IC50 [4] [nM] | IC50 [5] [nM] | SMILES
1 | < 100 | < 100 | ≥ 1000 |  |  | CCN(CCN(C)C)C(=O)CNCc1cc(C(=O)N2CCOC2=O)ccn1 [#72, N-[2-(dimethylamino)ethyl]-N-ethyl-2-({[4-(2-oxo-1,3-oxazolidine-3-carbonyl)pyridin-2-yl]methyl}amino)acetamide]
2 | ≥ 1000 | ≥ 1000 | ≥ 1000 |  |  | O=C(O)c1ccnc(CN2CCC2)c1 [#79, 2-(azetidin-1-ylmethyl)pyridine-4-carboxylic acid]
3 | < 100 | < 100 | ≥ 1000 |  |  | CCN(CCN(C)C)C(=O)CNCc1cc(C(=O)OCC(F)(F)F)ccn1 [#80, 2,2,2-trifluoroethyl 2-{[({[2-(dimethylamino)ethyl](ethyl)carbamoyl}methyl)amino]methyl}pyridine-4-carboxylate]
4 | 100 to 1000 | 100 to 1000 | 100 to 1000 |  |  | CCN(CC(=O)N1CCCCC1)Cc1cc(C(=O)O)ccn1 [#81, 2-({ethyl[2-oxo-2-(piperidin-1-yl)ethyl]amino}methyl)pyridine-4-carboxylic acid]
5 | ≥ 1000 | ≥ 1000 | 100 to 1000 |  |  | CCCCN(CC(=O)N1CCCCC1)Cc1cc(C(=O)O)ccn1 [#82, 2-({butyl[2-oxo-2-(piperidin-1-yl)ethyl]amino}methyl)pyridine-4-carboxylic acid]
6 | ≥ 1000 | ≥ 1000 | 100 to 1000 |  |  | O=C(O)c1ccnc(CN(CC(=O)N2CCCCC2)Cc2ccccc2)c1 [#83, 2-({benzyl[2-oxo-2-(piperidin-1-yl)ethyl]amino}methyl)pyridine-4-carboxylic acid]
7 |  |  |  | 1000 to 50000 | 1000 to 50000 | CCN(CC)CCCCNCc1cc(C(=O)OCCN(C)C)ccn1 [drawing 331, 2-(dimethylamino) ethyl 2-({[4-(diethylamino)butyl]amino}methyl)pyridine-4-carboxylate]
8 |  |  |  | 1000 to 50000 | 1000 to 50000 | CCN(CC)CCCCNCc1cc(C(=O)OCCCN(C)C)ccn1 [drawing 332, 3-(dimethylamino) propyl 2-({[4-(diethylamino)butyl]amino}methyl)pyridine-4-carboxylate]
